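In this assay, cells in 96-well plates receive the compound at five concentrations for 48 hours. Endpoints are linearly interpolated between the surrounding concentrations. GI50 = concentration required for 50% inhibition of growth.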 Active and inactive are the calls of the source. Rule as the data show it: active = GI50 up to about 1.1 µM and inactive = higher.
What was measured:
Test in all cases: NCI tumour cell line growth inhibition, 48 h
MCF7 = test system: MCF7
SF-295 = test system: SF-295
OVCAR-3 = test system: OVCAR-3
MDA-N = test system: MDA-N
U-251 = test system: U-251
HCT-15 = test system: HCT-15
UACC-257 = test system: UACC-257
EKVX = test system: EKVX
OVCAR-5 = test system: OVCAR-5
IGROV-1 = test system: IGROV-1
KM12 = test system: KM12
NCI-H23 = test system: NCI-H23
UACC-62 = test system: UACC-62
SNB-75 = test system: SNB-75
NCI/ADR-RES = test system: NCI/ADR-RES
SK-MEL-5 = test system: SK-MEL-5
CCRF-CEM = test system: CCRF-CEM
DU-145 = test system: DU-145
SF-268 = test system: SF-268

SMILES | GI50 (MCF7) | GI50 (SF-295) | GI50 (OVCAR-3) | GI50 (MDA-N) | GI50 (U-251) | GI50 (HCT-15) | GI50 (UACC-257) | GI50 (EKVX) | GI50 (OVCAR-5) | GI50 (IGROV-1) | GI50 (KM12) | GI50 (NCI-H23) | GI50 (UACC-62) | GI50 (SNB-75) | GI50 (NCI/ADR-RES) | GI50 (SK-MEL-5) | GI50 (CCRF-CEM) | GI50 (DU-145) | GI50 (SF-268)
C=C(C(=O)OC)[C@H]1CC/C(C)=C/CC/C(C)=C/CC[C@@]2(C)O[C@@H]2C1 | 17 µM (inactive) | 11.5 µM (inactive) | 17.7 µM (inactive) | 18.2 µM (inactive) | 20.1 µM (inactive) | 16.3 µM | 23.8 µM (inactive) | 18.7 µM (inactive) | 23.4 µM (inactive) | 16 µM (inactive) | 16.5 µM (inactive) | 19.3 µM (inactive) | 11.9 µM (inactive) | 65.2 µM (inactive) | 16.4 µM (inactive) | 10.3 µM (inactive) | 13.1 µM (inactive) | 21.9 µM (inactive) | 
O=C1c2ccccc2-c2cccc3ccc(Cc4ccccc4)c1c23 |  | > 100 µM (inactive) | > 100 µM (inactive) |  | > 100 µM (inactive) | > 100 µM | > 100 µM (inactive) | > 100 µM (inactive) | > 100 µM (inactive) | > 100 µM (inactive) | > 100 µM (inactive) | > 100 µM (inactive) | > 100 µM (inactive) | 6.53 µM (inactive) |  | > 100 µM (inactive) | > 100 µM (inactive) |  | > 100 µM (inactive)
C=CCOC(=O)Cn1ccc(=O)[nH]c1=O | > 100 µM (inactive) | > 100 µM (inactive) |  | > 100 µM (inactive) | > 100 µM (inactive) | > 100 µM | > 100 µM (inactive) | > 100 µM (inactive) | > 100 µM (inactive) | > 100 µM (inactive) | > 100 µM (inactive) | > 100 µM (inactive) | > 100 µM (inactive) | > 100 µM (inactive) | > 100 µM (inactive) | > 100 µM (inactive) | > 100 µM (inactive) | > 100 µM (inactive) | > 100 µM (inactive)
COC(=O)CCN1CCN(CCO)CC1C (configuration not stated) | > 10 µM (inactive) | > 10 µM (inactive) | > 10 µM (inactive) | > 10 µM (inactive) | > 10 µM (inactive) | > 10 µM | > 10 µM (inactive) | > 10 µM (inactive) |  | > 10 µM (inactive) | > 10 µM (inactive) | > 10 µM (inactive) | > 10 µM (inactive) | > 10 µM (inactive) | > 10 µM (inactive) | > 10 µM (inactive) | > 10 µM (inactive) | > 10 µM (inactive) | > 10 µM (inactive)
Cc1cc(=O)cc2sc3cc(Cl)ccc3nc1-2 |  | 6.5 µM (inactive) | 8.89 µM (inactive) |  | 6.53 µM (inactive) | 3.95 µM | 16.9 µM (inactive) | 4.72 µM (inactive) | 21.1 µM (inactive) | 12.1 µM (inactive) | 4.5 µM (inactive) | 13.7 µM (inactive) | 6.84 µM (inactive) | 3.24 µM (inactive) |  | 3.65 µM (inactive) | 1.39 µM (inactive) |  | 6.84 µM (inactive)
C[C@@H](CO)C1=CC(C#C[Si](C)(C)C)N(C(=O)Oc2ccccc2)c2ccccc21 (some centres not stated) |  | 12.2 µM (inactive) | 13.2 µM (inactive) | 7.08 µM (inactive) | 18.3 µM (inactive) | 6.37 µM | 16.8 µM (inactive) | 23.3 µM (inactive) | 19.8 µM (inactive) | 17.1 µM (inactive) | 14.2 µM (inactive) | 6.75 µM (inactive) | 9.1 µM (inactive) | 10.1 µM (inactive) | 11.8 µM (inactive) | 16 µM (inactive) | 20.4 µM (inactive) | 21.6 µM (inactive) | 16.5 µM (inactive)
O=c1c(C(c2ccco2)c2c(O)oc3ccccc3c2=O)c(O)oc2ccccc12 |  |  | 41.6 µM (inactive) | 22.6 µM (inactive) | 27.2 µM (inactive) | 19.1 µM | 23.4 µM (inactive) | 47 µM (inactive) |  | 17.8 µM (inactive) | > 100 µM (inactive) | > 100 µM (inactive) | 25.9 µM (inactive) | 28.1 µM (inactive) | 30.5 µM (inactive) | 40.3 µM (inactive) | 26.8 µM (inactive) | > 100 µM (inactive) | 31.9 µM (inactive)
CC1(C)c2ccccc2C(O)C12CCC(=O)CC2 (configuration not stated) |  | > 100 µM (inactive) | > 100 µM (inactive) | > 100 µM (inactive) | > 100 µM (inactive) | > 100 µM | > 100 µM (inactive) | > 100 µM (inactive) | > 100 µM (inactive) | > 100 µM (inactive) | > 100 µM (inactive) | > 100 µM (inactive) | > 100 µM (inactive) |  | > 100 µM (inactive) | > 100 µM (inactive) |  | > 100 µM (inactive) | > 100 µM (inactive)
O=C(O)CCCC#CCCCC(=O)O | > 100 µM (inactive) | > 100 µM (inactive) | > 100 µM (inactive) | > 100 µM (inactive) | > 100 µM (inactive) | > 100 µM | > 100 µM (inactive) | > 100 µM (inactive) | > 100 µM (inactive) | > 100 µM (inactive) | > 100 µM (inactive) | > 100 µM (inactive) | > 100 µM (inactive) | 43.5 µM (inactive) | > 100 µM (inactive) | > 100 µM (inactive) |  | > 100 µM (inactive) | > 100 µM (inactive)
Cc1cc([N+](=O)[O-])ccc1Nc1cccc(Cl)c1C |  | 18.9 µM (inactive) | 13.7 µM (inactive) |  | 16.3 µM (inactive) | 16.8 µM | 18 µM (inactive) | 20 µM (inactive) | 14.7 µM (inactive) | 13.6 µM (inactive) | 16 µM (inactive) | 17.1 µM (inactive) | 12.6 µM (inactive) | 19.2 µM (inactive) |  | 15.6 µM (inactive) | 16.5 µM (inactive) |  | 17 µM (inactive)
O=C(O)CCC(c1ccccc1)(c1ccccc1)c1ccccc1 | 17.7 µM (inactive) | 50.7 µM (inactive) | 14.7 µM (inactive) | 30.3 µM (inactive) | 39 µM (inactive) | 29.2 µM | 37 µM (inactive) | 36 µM (inactive) | > 100 µM (inactive) |  | 51.1 µM (inactive) | 34.4 µM (inactive) | 27.4 µM (inactive) |  | 36.5 µM (inactive) | 32 µM (inactive) | 64.3 µM (inactive) | 17.2 µM (inactive) | 24.5 µM (inactive)
CC(O)[C@@]1(c2ccccc2)CC2(CCN(C)CC2)O[C@H]1C (some centres not stated) | > 100 µM (inactive) | > 100 µM (inactive) | > 100 µM (inactive) |  | > 100 µM (inactive) | > 100 µM | > 100 µM (inactive) | > 100 µM (inactive) | > 100 µM (inactive) | > 100 µM (inactive) | > 100 µM (inactive) | > 100 µM (inactive) | 99.5 µM (inactive) | > 100 µM (inactive) | > 100 µM (inactive) | 61.2 µM (inactive) | 0.465 µM (active) | > 100 µM (inactive) | > 100 µM (inactive)
CCOC(=O)C(=Cc1cccnc1C)C(=O)OCC |  | 10.6 µM (inactive) | 2.67 µM (inactive) |  | 6.18 µM (inactive) | 3.69 µM | 8.09 µM (inactive) | 16.4 µM (inactive) | 17.9 µM (inactive) | 7.6 µM (inactive) | 3.1 µM (inactive) | 4.09 µM (inactive) | 6.82 µM (inactive) | 3.13 µM (inactive) |  | 11.8 µM (inactive) | 3.93 µM (inactive) |  | 9.89 µM (inactive)

— ChEMBL document CHEMBL1201862, “PubChem BioAssay data set” (2004)
